# “Also recorded” adds a separate entry of the source.
# System: Notch signalling via DL4:N1 ligand-receptor pair (Notch1)
# Assay: DL4:N1 coculture assay, Notch driven luciferase reporter
# Assay type: cell-based, mouse
# Conditions: DL4-N1 coculture assay; for Notch inhibitory activity of derivatives compared to parental compound I3: FIG. 10
# Text: Mouse DL4-IRES dsRED cDNA was cloned into a pENTR1 vector (Invitrogen®) and finally shuttled into a destination lentivirus vector using Gateway cloning strategy (Invitrogen). A Phosphoglycerate kinase (PGK) promoter drove the expression of DL4 protein. DL4-lentiviral particles were produced in 293T cells by cotransfection of DL4-lentivirus vector, Gag/pol expression plasmid and plasmid encoding for viral envelope proteins. To overexpress Notch1 protein, mouse full length Notch1 cDNA was a cloned in a pCDNA3.1-IRES-puromycin vector. Notch1 cDNA was cloned upstream of IRES-puromycin between HindIII and XbaI restriction sites. A CMV promoter controlled the expression of Notch1 protein.
# To measure the Notch signalling activation, CSL/RBP-jk consensus DNA binding sequences were cloned in a head to tail conformation in the pGL4 luciferase vector (Promega), thus named 12×CSL/RBP-jjk luciferase vector. In order to determine the Notch pathway activation in chemical compound screening assay, 12×CSL/RBP-jk consensus DNA binding sequences were cloned into pGL4.26.luciferase vector (Promega). As an internal control for transfection efficiency, SV40 Renilla vector was used (Promega).
# In order to generate DL4 and N1 stable cell lines, HeLa cell were bought from ATCC (catalog # CCL-2). To generate DL4 stable lines, cells were transduced with DL4-lentiviral particles. DL4 stable clones were selected using puromycin. High DL4 expressing clones were sorted using antibodies against DL4 with Fluorescence activated cell sorting (FACS). To generate N1 stable line, cell were transfected with a pCDNA3.1+(Invitrogen) plasmid containing mouse full length Notch1 under the control of CMV promoter. To select for Notch1 expressing clones, an IRES puromycin cassette was cloned downstream of Notch1 cDNA. HeLa cells expressing high levels of Notch1 were enriched by FACS using anti-Notch1 antibodies. DL4- and N1-HeLa cells were cultured in DMEM (GIBCO, Invitrogen), 10% FCS and 10 ug/ml of puromycin (Sigma).
# For chemical library screen, the coculture assay was performed as follows. N1-HeLa cells were cotransfected in 10 cm tissue culture dishes with 16 μg of pGL4.26. 12×CSL.luciferase vector/plate, 4 μg of Notch1 expression plasmid/plate, and 200 ng of SV40 Renilla vector/plate. DL4- and N1-HeLa cells were detached from the plate by using 0.5 mM EDTA (1×PBS). The both cell populations were counted and mixed in 1:1 ratio (5,000:5,000 cells/well in a 384 well plate) and dispensed into 384 well plates (white, clear bottom, Corning) using multidrop Combi plate dispenser. The assay plates were pre-dispensed (using automated Biomek 3000 liquid handler) with chemical compound libraries (Microsource NIMDS, Maybridge Hitfinder and Prestwick) to give a final concentration of 10 μM. The final assay volume was 22 μls. Twenty-four hours later, growth media was aspirated and cells were lysed with 1× Passive lysis buffer for 10 minutes at room temperature. Luciferase activity was measured using Luciferase Assay Reagent II and Renilla values were determined by using Stop and Glow reagent (Dual luciferase assay system, Cat #E1980, Promega). Luciferase and renilla readouts were taken using Tecan® F500 (Tecan) multiplate reader. All the liquid handling steps (aspiration of the medium, dispensing of Passive lysis buffer, Luciferase Assay Reagent II and Stop and Glow reagents) were performed using ELF406 liquid handler.
# In order to identify novel modulators of the Notch pathway, Applicants have established a coculture assay in which DL4 ligand expressing HeLa cells were cultured with N1 HeLa cells, thereby activating the Notch pathway. The use of a DL4 and N1 HeLa cell coculture system mimics physiological conditions of cell-cell communication between ligand and receptor expressing cells. The in vitro generation of a controlled receptor-ligand assay system allowed Applicants to modify and monitor the Notch signal intensity by γ-secretase inhibitors. […]
Structure (SMILES),ability to block Notch pathway activation in coculture assay (screening of derivatives),Notch inhibitory activity of derivatives compared to parental compound I3
"Nc1ccc(Oc2ccc(C3CCCCC3)cc2)nc1 [I3-A, 6-(4-cyclohexylphenoxy)pyridin-3-amine]",ability to block Notch pathway activation in coculture assay,block Notch signalling to comparable levels to parental compound I3; also recorded: exhibit anti-Notch activity comparable to 6-(4-Tert-Butylphenoxy)Pyridin-3-Amine (I3)
"CCC(C)(C)c1ccc(Oc2ccc(N)cn2)cc1 [I3-B, 6-(4-(tert-Pentyl)phenoxy)pyridin-3-amine]",ability to block Notch pathway activation in coculture assay,block Notch signalling to comparable levels to parental compound I3; also recorded: exhibit anti-Notch activity comparable to 6-(4-Tert-Butylphenoxy)Pyridin-3-Amine (I3)
"CC(C)(C)c1ccc(Oc2ccc(N)cc2)cc1 [I3-C, 4-(4-(tert-butyl)phenoxy)aniline]",ability to block Notch pathway activation in coculture assay,block Notch signalling to comparable levels to parental compound I3; also recorded: exhibit anti-Notch activity comparable to 6-(4-Tert-Butylphenoxy)Pyridin-3-Amine (I3)
"CCCCc1ccc(Oc2ccc(N)cn2)cc1 [I3-D, 6-(4-Butylphenoxy)pyridin-3-amine]",ability to block Notch pathway activation in coculture assay,
"CCC(C)(C)c1ccc(Oc2ccc(N)cc2)cc1 [I3-E, 4-(4-(tert-pentyl)phenoxy)aniline]",ability to block Notch pathway activation in coculture assay,block Notch signalling to comparable levels to parental compound I3; also recorded: exhibit anti-Notch activity comparable to 6-(4-Tert-Butylphenoxy)Pyridin-3-Amine (I3)
"Nc1ccc(Oc2ccc(C3CCCCC3)cc2)cc1 [I3-F, 4-(4-cyclohexylphenoxy)aniline]",ability to block Notch pathway activation in coculture assay,appear to have enhanced activity
"Nc1ccc(Oc2ccc(C34CC5CC(CC(C5)C3)C4)cc2)nc1 [I3-G, 6-(4-((3r,5r,7r)-adamantan-1-yl)phenoxy)pyridin-3-amine]",ability to block Notch pathway activation in coculture assay,block Notch signalling to comparable levels to parental compound I3; also recorded: exhibit anti-Notch activity comparable to 6-(4-Tert-Butylphenoxy)Pyridin-3-Amine (I3)
"CC(C)(C)c1cccc(Oc2ccc(N)cn2)c1 [I3-H, 6-(3-(tert-butyl)phenoxy)pyridin-3-amine]",ability to block Notch pathway activation in coculture assay,block Notch signalling to comparable levels to parental compound I3; also recorded: exhibit anti-Notch activity comparable to 6-(4-Tert-Butylphenoxy)Pyridin-3-Amine (I3)
"CC(C)(C)c1ccc(Oc2ccc(N)cc2F)cc1 [I3-I, 4-(4-(tert-butyl)phenoxy)-3-fluoroaniline]",ability to block Notch pathway activation in coculture assay,appear to have enhanced activity
"CC(C)c1ccc(Oc2ccc(N)cc2)cc1 [I3-J, 4-(4-isopropylphenoxy)aniline]",ability to block Notch pathway activation in coculture assay,
"CC(C)(C)CC(C)(C)c1ccc(Oc2ccc(N)cn2)cc1 [I3-K, 6-(4-(2,4,4-trimethylpentan-2-yl)phenoxy)pyridin-3-amine]",ability to block Notch pathway activation in coculture assay,
"Nc1ccc(Oc2ccc(C3CCCCC3)cc2)c(F)c1 [I3-L, 4-(4-cyclohexylphenoxy)-3-fluoroaniline]",ability to block Notch pathway activation in coculture assay,
"CCC(C)(C)c1ccc(Oc2ccc(N)cc2F)cc1 [I3-M, 3-fluoro-4-(4-(tert-pentyl)phenoxy)aniline]",ability to block Notch pathway activation in coculture assay,block Notch signalling to comparable levels to parental compound I3; also recorded: exhibit anti-Notch activity comparable to 6-(4-Tert-Butylphenoxy)Pyridin-3-Amine (I3)
"CCCC(C)(C)c1ccc(Oc2ccc(N)cn2)cc1 [I3-N, 6-(4-(2-methylpentan-2-yl)phenoxy)pyridin-3-amine]",ability to block Notch pathway activation in coculture assay,block Notch signalling to comparable levels to parental compound I3; also recorded: exhibit anti-Notch activity comparable to 6-(4-Tert-Butylphenoxy)Pyridin-3-Amine (I3)
"Nc1ccc(Oc2ccc(C34CC5CC(CC(C5)C3)C4)cc2)cc1 [I3-O, 4-(4-((3r,5r,7r)-adamantan-1-yl)phenoxy)aniline]",ability to block Notch pathway activation in coculture assay,
"Nc1ccc(Oc2ccc(C34CC5CC(CC(C5)C3)C4)cc2)c(F)c1 [I3-P, 4-(4-((3r,5r,7r)-adamantan-1-yl)phenoxy)-3-fluoroaniline]",ability to block Notch pathway activation in coculture assay,

# Source: patent publication US10054581B1, “Inhibitors of notch signaling pathway and use thereof in treatment of cancers” (Ecole Polytechnique Federale de Lausanne (EPFL), priority 2011, dated 2018)
